From article PMC2397535 (Breast Cancer Research : BCR, 2008) come the findings set out here.

The structures appear in SMILES notation.

One test has as its system BT-474. Put plainly: antiproliferative effect (GI50), breast cancer cell line. The format is cell-based. As to conditions: Homo sapiens.
A further test has as its system BT20. The test is described as above. The class given is cell-based. The following applies: Homo sapiens, BT-20.
Another test has as its system MDA-MB-157. The test is described as above. The class given is cell-based. The following applies: Homo sapiens.
The test system of a further test is MDA-MB-231. Described as above. The format is cell-based. As to conditions: Homo sapiens.
Another test has as its system MDA-MB-468. The test is described as above. The class given is cell-based. The following applies: Homo sapiens.
Another test relates to SkBr3. The test is described as above. The class given is cell-based. The following applies: Homo sapiens, SK-BR-3.
Another test deals with MCF-7. The description is as above. The format is cell-based. As to conditions: Homo sapiens, MCF7.
A further test concerns the target HSP90-p23 complex (Homo sapiens, UniProt P07900). The method, then:
For immunoprecipitation, 300 μg of total protein was immunoprecipitated with 5 μg of rat anti-HSP90α monoclonal antibody (SPA-840, clone 9D2, isotype: IgG2a; Assay Designs, Inc.). Proteins were resolved by 12% SDS-PAGE and transferred to PVDF membranes.

Turning to `C=CCNC1=C2C[C@@H](C)C[C@H](OC)[C@H](O)[C@@H](C)/C=C(\C)[C@H](OC(N)=O)[C@@H](OC)/C=C\C=C(/C)C(=O)NC(=CC1=O)C2=O` [17-AAG, 17-allylamino-17-demethoxygeldanamycin, reference compound], the 50% growth inhibitory concentration (GI50) in the test with BT-474 was 17.4 ± 5.2 nM; in the test with BT20, 18.9 ± 4.8 nM; in the test with MDA-MB-157, 29.5 ± 20.8 nM; with MDA-MB-231, 2060 nM; in the test on MDA-MB-468, 1660 nM; in the test on SkBr3, 11.9 ± 8 nM. For the same molecule, growth in the test on MCF-7 was halved (GI50) at 69 ± 18.3 nM. In addition, the “amount of HSP90α co-immunoprecipitating with p23” value at HSP90-p23 complex is given as “concentration-dependent decrease”. Also, at HSP90-p23 complex, the “time to complete HSP90-p23 dissociation (full inhibition)” value was at most 15 min.

As usually defined, the GI50 is the concentration that inhibits growth by half. The low end stands for greater sensitivity of the cells, the high end for lower sensitivity of the cells.
